# Assay results from patent US20240269139A1, “COMPOUNDS FOR TARGETED PROTEIN DEGRADATION OF KINASES” (DANA-FARBER CANCER INSTITUTE, INC., priority 2020, published 2024).
# Read-outs that look alike come from different tables or passages of the source.
# Legend:
# Format in all cases: cell-based
# [1] = target: T1, protein kinases (human kinome) (Homo sapiens, UniProt Q8TBX8); details: PIP4K2C Q8TBX8-1
# T1 sequence (Q8TBX8 1-421): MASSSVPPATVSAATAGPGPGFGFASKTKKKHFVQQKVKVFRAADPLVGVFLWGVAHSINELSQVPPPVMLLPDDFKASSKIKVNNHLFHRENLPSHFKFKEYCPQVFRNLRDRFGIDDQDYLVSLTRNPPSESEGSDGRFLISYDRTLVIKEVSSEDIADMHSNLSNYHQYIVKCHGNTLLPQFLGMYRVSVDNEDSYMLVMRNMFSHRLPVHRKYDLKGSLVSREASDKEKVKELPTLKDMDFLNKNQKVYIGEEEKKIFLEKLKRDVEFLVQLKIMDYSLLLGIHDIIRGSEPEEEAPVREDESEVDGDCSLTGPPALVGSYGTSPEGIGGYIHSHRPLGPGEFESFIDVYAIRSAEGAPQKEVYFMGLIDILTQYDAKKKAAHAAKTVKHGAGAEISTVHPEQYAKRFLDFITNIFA
# [2] = target: protein kinases (human kinome) (Homo sapiens, UniProt O75676); details: for logFC: RPS6KA4 (O75676)
# Sequence of protein kinases (human kinome) (Homo sapiens, UniProt O75676) (O75676 whole entry): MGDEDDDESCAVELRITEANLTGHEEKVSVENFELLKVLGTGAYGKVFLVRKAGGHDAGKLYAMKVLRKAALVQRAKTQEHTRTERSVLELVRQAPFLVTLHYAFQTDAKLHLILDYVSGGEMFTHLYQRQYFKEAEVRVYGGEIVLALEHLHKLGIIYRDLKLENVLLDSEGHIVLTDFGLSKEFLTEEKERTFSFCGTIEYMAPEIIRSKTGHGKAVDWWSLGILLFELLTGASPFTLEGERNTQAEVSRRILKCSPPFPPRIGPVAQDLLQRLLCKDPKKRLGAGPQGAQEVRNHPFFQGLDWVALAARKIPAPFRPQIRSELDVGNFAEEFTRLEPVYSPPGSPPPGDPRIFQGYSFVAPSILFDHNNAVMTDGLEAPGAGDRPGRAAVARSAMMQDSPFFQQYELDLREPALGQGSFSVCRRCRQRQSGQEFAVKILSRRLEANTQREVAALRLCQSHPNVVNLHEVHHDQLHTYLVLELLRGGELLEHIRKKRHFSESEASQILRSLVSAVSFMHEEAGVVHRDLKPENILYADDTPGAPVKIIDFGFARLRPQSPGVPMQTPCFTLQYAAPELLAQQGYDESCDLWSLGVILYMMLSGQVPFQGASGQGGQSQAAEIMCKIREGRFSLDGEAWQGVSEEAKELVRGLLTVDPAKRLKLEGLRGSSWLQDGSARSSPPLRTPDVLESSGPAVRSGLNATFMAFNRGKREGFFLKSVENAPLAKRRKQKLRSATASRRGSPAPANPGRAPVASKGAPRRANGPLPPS
# [3] = target: protein kinases (human kinome) (Homo sapiens, UniProt Q5TCX8); details: for logFC: MAP3K21 (Q5TCX8); for logFC MAP3K21 (Q5TCX8): direction of change down
# Sequence of protein kinases (human kinome) (Homo sapiens, UniProt Q5TCX8) (Q5TCX8 whole entry): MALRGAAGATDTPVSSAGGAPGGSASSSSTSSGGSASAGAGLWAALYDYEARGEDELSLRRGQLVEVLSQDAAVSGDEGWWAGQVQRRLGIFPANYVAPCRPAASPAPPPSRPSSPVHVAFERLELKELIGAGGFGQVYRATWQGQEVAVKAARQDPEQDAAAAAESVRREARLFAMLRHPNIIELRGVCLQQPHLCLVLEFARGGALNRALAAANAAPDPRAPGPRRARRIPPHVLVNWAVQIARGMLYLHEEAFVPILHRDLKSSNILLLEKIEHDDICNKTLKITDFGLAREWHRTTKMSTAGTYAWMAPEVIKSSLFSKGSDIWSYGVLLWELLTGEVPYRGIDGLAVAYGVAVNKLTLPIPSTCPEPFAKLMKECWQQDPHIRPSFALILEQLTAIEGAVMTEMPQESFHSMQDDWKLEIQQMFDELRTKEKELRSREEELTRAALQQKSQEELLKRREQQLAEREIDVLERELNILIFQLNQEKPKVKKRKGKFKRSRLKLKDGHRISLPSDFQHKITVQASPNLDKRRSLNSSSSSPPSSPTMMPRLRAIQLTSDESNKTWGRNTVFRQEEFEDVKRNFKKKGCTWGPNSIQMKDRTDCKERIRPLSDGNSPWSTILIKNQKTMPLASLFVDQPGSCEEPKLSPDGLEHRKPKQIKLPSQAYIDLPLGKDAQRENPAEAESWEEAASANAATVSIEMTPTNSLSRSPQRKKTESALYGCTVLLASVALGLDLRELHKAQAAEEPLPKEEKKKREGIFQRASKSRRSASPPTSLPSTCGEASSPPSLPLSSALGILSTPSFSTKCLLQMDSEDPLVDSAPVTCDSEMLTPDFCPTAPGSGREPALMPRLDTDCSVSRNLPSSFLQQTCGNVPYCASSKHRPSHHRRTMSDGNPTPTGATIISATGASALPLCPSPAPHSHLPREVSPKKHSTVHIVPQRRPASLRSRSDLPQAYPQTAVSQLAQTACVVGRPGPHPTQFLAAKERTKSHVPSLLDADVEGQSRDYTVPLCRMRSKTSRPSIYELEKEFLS
# [4] = target: T2, protein kinases (human kinome) (Homo sapiens, UniProt Q86YV5); details: PRAG1 Q86YV5
# T2 sequence (Q86YV5 1-1406): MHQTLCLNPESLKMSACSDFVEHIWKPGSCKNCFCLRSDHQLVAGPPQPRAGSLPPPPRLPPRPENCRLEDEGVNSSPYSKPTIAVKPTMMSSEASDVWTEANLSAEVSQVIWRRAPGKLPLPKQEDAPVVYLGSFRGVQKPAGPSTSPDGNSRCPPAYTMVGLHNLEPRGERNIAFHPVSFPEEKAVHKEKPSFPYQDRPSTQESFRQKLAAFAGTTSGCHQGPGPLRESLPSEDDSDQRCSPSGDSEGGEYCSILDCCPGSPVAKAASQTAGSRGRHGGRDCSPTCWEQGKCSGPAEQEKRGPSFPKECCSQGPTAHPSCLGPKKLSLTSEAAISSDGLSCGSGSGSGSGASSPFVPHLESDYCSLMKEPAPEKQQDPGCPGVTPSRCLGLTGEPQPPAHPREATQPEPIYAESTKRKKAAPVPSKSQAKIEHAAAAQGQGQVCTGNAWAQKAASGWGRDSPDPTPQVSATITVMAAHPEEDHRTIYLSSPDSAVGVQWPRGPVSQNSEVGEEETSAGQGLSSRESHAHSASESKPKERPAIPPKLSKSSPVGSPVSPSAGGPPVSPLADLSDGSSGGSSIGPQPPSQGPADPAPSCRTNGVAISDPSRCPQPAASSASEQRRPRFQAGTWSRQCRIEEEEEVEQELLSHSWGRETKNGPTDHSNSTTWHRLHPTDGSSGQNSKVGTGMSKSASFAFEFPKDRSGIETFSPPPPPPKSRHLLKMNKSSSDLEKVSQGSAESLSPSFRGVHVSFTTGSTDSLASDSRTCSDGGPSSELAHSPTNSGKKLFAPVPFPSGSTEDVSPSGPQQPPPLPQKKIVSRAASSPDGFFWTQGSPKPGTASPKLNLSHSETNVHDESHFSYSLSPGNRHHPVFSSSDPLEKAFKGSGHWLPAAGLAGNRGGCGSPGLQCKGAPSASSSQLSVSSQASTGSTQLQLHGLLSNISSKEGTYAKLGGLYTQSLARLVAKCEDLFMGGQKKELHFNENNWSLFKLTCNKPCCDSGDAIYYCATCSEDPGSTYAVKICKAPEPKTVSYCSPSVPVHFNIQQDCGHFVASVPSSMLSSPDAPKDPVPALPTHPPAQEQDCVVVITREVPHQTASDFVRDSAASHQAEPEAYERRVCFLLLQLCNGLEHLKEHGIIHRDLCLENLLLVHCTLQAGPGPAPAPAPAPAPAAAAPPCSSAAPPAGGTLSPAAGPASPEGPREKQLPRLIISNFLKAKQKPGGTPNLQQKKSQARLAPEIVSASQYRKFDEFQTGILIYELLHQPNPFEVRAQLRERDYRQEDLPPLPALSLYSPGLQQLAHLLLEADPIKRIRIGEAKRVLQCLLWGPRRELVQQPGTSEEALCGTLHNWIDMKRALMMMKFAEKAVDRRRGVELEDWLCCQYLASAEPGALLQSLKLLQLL
compound,measurement,setting,value
"Cc1ccc(NC(=O)c2cccc(C(F)(F)F)c2)cc1N1Cc2cnc(Nc3ccc(N4CCN(Cc5cn(CCCCCOc6cccc7c6C(=O)N(C6CCC(=O)NC6=O)C7=O)nn5)CC4)nc3)nc2N(C)C1=O (stereo not drawn) [DB0646, N-(3-(7-((6-(4-((1-(5-((2-(2,6-Dioxopiperidin-3-yl)-1,3-dioxoisoindolin-4-yl)oxy)pentyl)-1H-1,2,3-triazol-4-yl)methyl)piperazin-1-v)pyridin-3-yl)amino)-1-methyl-2-oxo-1,4-dihydropyrimido[4,5-d]pyrimidin-3(2H)-yl)-4-methylphenyl)-3-(trifluoromethyl)benzamide]",logFC,[1]; experiment wp107,−0.353
same,logFC,[1]; experiment wp117,−0.3503
same,logFC,"[1]; experiment wp160, 8 hr",−0.4714
Nc1ncc(-c2ccc(S(=O)(=O)N(CCCNC(=O)CCOCCOCCOCCOCCOCCNc3cccc4c3C(=O)N(C3CCC(=O)NC3=O)C4=O)C3CC3)cc2)cc1-c1ccc2c(c1)CCNC2=O (stereo not drawn) [WH.10417.099],logFC,[1]; experiment wp056,−0.5009
same,logFC,[1]; experiment wp103,−0.5201
same,logFC,[1]; experiment wp105,−0.3715
same,logFC,[1]; experiment wp107,−0.5734
Cc1cc(Nc2ncc(Br)c(Nc3cccc(F)c3C(N)=O)n2)ccc1S(=O)(=O)NCCOCCOCCOCCOCCNc1cccc2c1C(=O)N(C1CCC(=O)NC1=O)C2=O (stereo not drawn) [TMX.02.174],logFC,[2]; experiment wp146,−1.5
same,logFC of RPS6KA4 (O75676),[2]; experiment wp146,−1.5
Cc1ncsc1-c1ccc([C@H](C)NC(=O)[C@@H]2C[C@@H](O)CN2C(=O)[C@@H](NC(=O)CCOCCOCCN2CCN(c3ccc(Nc4ncc(Cl)c(Nc5ccccc5S(=O)(=O)C(C)C)n4)cc3)CC2)C(C)(C)C)cc1 [FMF.06.098.1],logFC of RPSGKA4 (O75676),[2]; Experiment wp108,−0.4196
same,logFC,[2]; experiment wp108,−0.4196
same,logFC,[2]; experiment wp131,−0.5351
same,logFC of RPS6KA4 (O75676),[2]; experiment wp131,−0.5351
CC(C)S(=O)(=O)c1ccccc1Nc1nc(Nc2ccc(N3CCN(CCOCCNC(=O)CNc4cccc5c4C(=O)N(C4CCC(=O)NC4=O)C5=O)CC3)cc2)ncc1Cl (stereo not drawn) [SK.3.91],logFC,"[3]; experiment wp133, 4 hr",−0.4685
same,logFC MAP3K21 (Q5TCX8),"[3]; experiment wp133, 4 hr",−0.4685
same,logFC,[4]; experiment wp107,−0.3692
same,logFC PRAG1,[4]; experiment wp107,−0.3692
same,logFC,"[4]; experiment wp133, 2 hr",−0.3667
same,logFC PRAG1,"[4]; experiment wp133, 2 hr",−0.3667
same,logFC,"[4]; experiment wp133, 4 hr",−0.4352
same,logFC PRAG1,"[4]; experiment wp133, 4 hr",−0.4352
CC(C)S(=O)(=O)c1ccccc1Nc1nc(Nc2ccc(N3CCN(CCOCCOCCNC(=O)CNc4cccc5c4C(=O)N(C4CCC(=O)NC4=O)C5=O)CC3)cc2)ncc1Cl (stereo not drawn) [TL12.186],logFC,[3]; experiment wp131,−0.969
same,logFC MAP3K21 (Q5TCX8),[3]; experiment wp131,−0.969
same,logFC,[4]; experiment wp131,−0.4243
same,logFC PRAG1,[4]; experiment wp131,−0.4243
same,logFC,[4]; experiment wp137,−0.3459
same,logFC PRAG1,[4]; experiment wp137,−0.3459
